One experiment addresses IDO1 in HeLa cells (Homo sapiens (Human), UniProt P14902). In words: HeLa cell based IDO1 assay (IFNγ-induced, KYN in supernatant). As for the experimental part:
HeLa cells were obtained from ATCC and maintained in DMEM supplemented with sodium bicarbonate (2.1 g/L), HEPES (4.1 g/L), L-glutamine (2 mM), non-essential amino acid (84 mg/L) and fetal bovine serum (10% FBS) and maintained at 95% humidity and 5% CO2 in a 37° C. incubator. Unless otherwise stated, all materials were procured from Sigma. Upon incubation with gamma-interferon (IFNγ ), HeLa cells express IDO1, which catalyzes the formation of N-formyl kynurenine from tryptophan present in growth medium. The assay was performed as follows:
Cells were plated in medium (300 μL) at a density of 0.1 million per well of a 48 well plate and hIDO1 was induced by overnight treatment with IFNγ (50 ng/mL) (Peprotech, USA). The following day, cells were washed to remove IFNγ and were incubated with specific concentrations of test compounds (typically 10 μM to 1 nM, final volume 300 μL) in Hanks Balanced Salt Solution (HBSS) containing 80 μM L-tryptophan. Following incubation, supernatant (150 μL) was transferred to a 96 well plate into which 30%TCA (304) was added and the contents further incubated at 65° C. for 15 min to fully convert N-formylkynurenine to kynurenine. The reaction mixture was then centrifuged to remove sediments and the KYN in the supernatant was estimated by UV-visible absorption spectroscopy at 360 nm using a Waters HPLC system fitted with a C-18 column. (Xiangdong Liu et al. Blood 2010, Vol-117, 3520-30; Sono described above).
(§1) Percent inhibition at each concentration of test compounds was determined by estimating the decrease in KYN with reference to the reaction control with 1% DMSO vehicle. Data were analyzed using nonlinear regression to generate IC50 values using Graph Pad Prism® 5.

Experiment [1] deals with Human indoleamine 2,3-dioxygenase1 (hIDO1) (Homo sapiens (Human), UniProt P14902). The experiment is described as follows: In-vitro IDO1 enzyme assay (conversion of L-tryptophan to KYN). The experiment is classed as biochemical. To be noted: read-out: IC50 (IDO1) Enz.
Text: Human indoleamine 2,3-dioxygenasel (hIDO1) catalyzes the oxidative cleavage of the pyrrole ring of the indole nucleus of tryptophan to yield N-formylkynurenine which can be converted to kynurenine (KYN) by deformylation. hIDO1 with an N-terminal His tag, expressed and purified from E. coli cells was procured from either Enzo LifeScienccs, NY, USA). Unless otherwise stated, all materials were procured from Sigma Aldrich, Mo., USA.
The assay monitoring the conversion of L-tryptophan to KYN was carried out as follows. hIDO1 (10 nM) was incubated with tryptophan (30 μM) in the presence of ascorbic acid (20 mM), methylene blue (10 μM) and catalase (100 μg/mL) in potassium phosphate buffer (50 mM; pH 6.5) at 37C for 30 min. The reaction was terminated with 30% trichloroacetic acid (TCA) and further incubated at 65C for 15 min to fully convert N-formylkynurenine to KYN. The reaction mixture was then centrifuged to remove sediments and the KYN in the supernatant was estimated by UV-visible absorption spectroscopy at 360 nm using a Waters HPLC system fitted with a C-18 column or by LC/MS/MS. See, Sono, 1980, J. Biol. Chem., 255:1339-1345, which is herein incorporated by reference.
as §1

The target in experiment [2] is Human TDO (hTDO)-transfected CHO-K1 cells (Homo sapiens (Human), UniProt P48775). In words: CHO-K1 cell based TDO assay. The note with it: hTDO cellular assay. As for the experimental part: Human TDO (hTDO)-transfected CHO-K1 cells were used to identify test compounds that inhibit TDO activity and reduce Kynurenine production. CHO-K1 cells (ATCC) were cultured in DMEM supplemented with sodium bicarbonate (2.1 g/L), HEPES (4.1 g/L), L-glutamine (2 mM), non-essential amino acid (84 mg/L) and fetal bovine serum (10%) and maintained at 95% humidity and 5% CO2 in a 37° C. incubator. The TDO gene (TDO2) (Accession number NM_005651.1) was purchased from Origene (USA) and stably expressed in CHO-Kl cells using the expression vector pcDNA4/Myc-HisB Hygro (Life Technologies, USA). TDO-expressing clones were identified based on the kynurenine production by the cells. Expanded clones were used for assay as described below. Unless otherwise stated, all materials were procured from Sigma.
hTDO transfected CHO-K1 cells (0.05 million/well) were seeded in a 96-well plate and maintained overnight in DMEM containing 10% FBS (200 μL) at 95% humidity and 5% CO2 in a 37° C. incubator. The following day, cells were washed and incubated with test compounds (typically 31 μM to 10 nM, final volume 150 μL) in Hanks Balanced Salt Solution (HBSS) containing 80 μM L-tryptophan for 2 hours. Supernatant (150 μL) from the cells was treated with 30% TCA ([…]) to precipitate proteins. Supernatants were further incubated at 65° C. for 15 min to convert N-formylkynurenine to kynurenine. KYN in the supernatant was measured by LC/MS/MS using an API4000 mass spectrometer (Applied Biosystems) coupled to a Shimadzu Prominence LC system fitted with a C18 column.
Percent inhibition of the test compounds was determined by measuring the decrease in KYN as compared to the reaction control (DMSO vehicle). IC50 values were calculated using Graph Pad Prism® 5 as described above.

The IC50 is the concentration at which inhibition is half-maximal.

Chain of Human indoleamine 2,3-dioxygenase1 (hIDO1) (P14902 whole entry): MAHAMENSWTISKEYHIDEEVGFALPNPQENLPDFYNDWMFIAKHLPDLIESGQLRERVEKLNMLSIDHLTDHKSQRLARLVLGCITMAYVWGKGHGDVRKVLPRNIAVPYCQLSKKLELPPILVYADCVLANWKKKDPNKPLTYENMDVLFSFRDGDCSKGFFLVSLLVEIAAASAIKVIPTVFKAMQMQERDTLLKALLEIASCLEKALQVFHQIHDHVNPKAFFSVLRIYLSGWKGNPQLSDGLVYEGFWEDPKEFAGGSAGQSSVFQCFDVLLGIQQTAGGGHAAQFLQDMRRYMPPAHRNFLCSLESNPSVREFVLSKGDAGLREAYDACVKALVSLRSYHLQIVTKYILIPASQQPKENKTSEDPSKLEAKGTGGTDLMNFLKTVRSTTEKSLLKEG
Chain of IDO1 in HeLa cells (P14902 whole entry): as above
Chain of Human TDO (hTDO)-transfected CHO-K1 cells (P48775 whole entry): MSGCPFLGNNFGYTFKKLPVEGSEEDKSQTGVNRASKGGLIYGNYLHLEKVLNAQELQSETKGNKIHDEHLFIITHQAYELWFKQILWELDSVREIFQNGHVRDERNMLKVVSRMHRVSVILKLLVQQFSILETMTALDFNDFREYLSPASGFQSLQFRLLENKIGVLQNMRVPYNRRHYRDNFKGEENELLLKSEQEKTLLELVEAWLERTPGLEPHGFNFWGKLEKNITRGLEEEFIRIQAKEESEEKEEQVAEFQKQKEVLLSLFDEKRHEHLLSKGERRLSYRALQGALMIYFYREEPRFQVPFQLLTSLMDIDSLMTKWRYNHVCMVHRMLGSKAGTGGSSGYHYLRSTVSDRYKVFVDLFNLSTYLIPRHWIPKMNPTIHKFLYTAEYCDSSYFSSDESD

With “2-Amino-3-((3-chloro-4-fluorophenyl)amino)furo[2,3-c]pyridine-7-carbonitrile [Compound 106]”, the IC50 against IDO1 in HeLa cells was > 1000 nM; in experiment [1] it was > 1000 nM; in experiment [2], 500 to 2000 nM.
In the case of `Nc1oc2cnccc2c1Nc1ccccc1` [Compound 3, N^3-Phenylfuro[2,3-c]pyridine-2,3-diamine], the figures for the IC50 (on IDO1 in HeLa cells; in experiment [1]; in experiment [2]) were < 200 nM, 200 to 1000 nM and < 500 nM, respectively.
The like results for `Nc1oc2cnccc2c1Nc1ccccc1Cl` [Compound 4, N^3-(2-Chlorophenyl)furo[2,3-c]pyridine-2,3-diamine] were, in that order, < 200 nM, > 1000 nM and > 2000 nM.
The like results for `Nc1oc2cnccc2c1Nc1ccc(F)cc1` [Compound 5, N^3-(4-Fluorophenyl)furo[2,3-c]pyridine-2,3-diamine] were, in that order, < 200 nM, 200 to 1000 nM and 500 to 2000 nM.
`Nc1oc2cnccc2c1Nc1cccc(Cl)c1` [Compound 8, N^3-(3-Chlorophenyl)furo[2,3-c]pyridine-2,3-diamine]: the figures for the 50% inhibitory concentration (IC50) (at IDO1 in HeLa cells; in experiment [1]; in experiment [2]) were < 200 nM, 200 to 1000 nM and 500 to 2000 nM, respectively.
As for `COc1cc(Nc2c(N)oc3cnccc23)ccc1Cl` [Compound 9, N^3-(4-Chloro-3-methoxyphenyl)furo[2,3-c]pyridine-2,3-diamine], the IC50 against IDO1 in HeLa cells is 200 to 1000 nM; in experiment [1], > 1000 nM; in experiment [2] it was 500 to 2000 nM.
In the case of `Nc1oc2cnccc2c1Nc1ccc(F)cc1Br` [Compound 10, N^3-(2-Bromo-4-fluorophenyl)furo[2,3-c]pyridine-2,3-diamine], the IC50 is 200 to 1000 nM against IDO1 in HeLa cells, > 1000 nM in experiment [1] and > 2000 nM in experiment [2].
The matching figures for `Cc1ccc(Nc2c(N)oc3cnccc23)cc1C` [Compound 13, N^3-(3,4-Dimethylphenyl)furo[2,3-c]pyridine-2,3-diamine]: < 200 nM, 200 to 1000 nM and 500 to 2000 nM.
Regarding `Cc1cc(C)cc(Nc2c(N)oc3cnccc23)c1` [Compound 14, N^3-(3,5-Dimethylphenyl)furo[2,3-c]pyridine-2,3-diamine], the results for the IC50 (against IDO1 in HeLa cells; in experiment [1]; in experiment [2]) were < 200 nM, 200 to 1000 nM and 500 to 2000 nM, respectively.
On to `Cc1cccc(Nc2c(N)oc3cnccc23)c1` [Compound 48, N^3-(m-tolyl)Furo[2,3-c]pyridine-2,3-diamine], for which the IC50 (against IDO1 in HeLa cells; in experiment [1]) was < 200 nM each time.
`Nc1oc2c(Cc3ccccc3)nccc2c1Nc1ccc(F)c(Cl)c1` [Compound 86, 7-Benzyl-N^3-(3-chloro-4-fluorophenyl)furo[2,3-c]pyridine-2,3-diamine]: the IC50 (against IDO1 in HeLa cells; in experiment [1]) was < 200 nM in each case.
Turning to `Nc1oc2c(-c3ccc(Cl)cc3)nccc2c1Nc1ccc(F)c(Cl)c1` [Compound 91, N^3-(3-Chloro-4-fluorophenyl)-7-(4-chlorophenyl)furo[2,3-c]pyridine-2,3-diamine], the IC50 (on IDO1 in HeLa cells; in experiment [1]) was < 200 nM in each case.
Take `C#Cc1cccc(Nc2c(N)oc3c(-c4ccccc4)nccc23)c1` [Compound 92, N^3-(3-Ethynylphenyl)-7-phenylfuro[2,3-c]pyridine-2,3-diamine]: the IC50 (against IDO1 in HeLa cells; in experiment [1]) was < 200 nM throughout.
Turning to `COc1ccc(-c2nccc3c(Nc4ccc(F)c(Cl)c4)c(N)oc23)cc1` [Compound 101, N^3-(3-Chloro-4-fluorophenyl)-7-(4-methoxyphenyl)furo[2,3-c]pyridine-2,3-diamine], the IC50 (on IDO1 in HeLa cells; in experiment [1]) was < 200 nM in each case.
For the compound `N#Cc1ccc2c(Nc3ccc(F)c(Cl)c3)c(N)oc2c1` [Compound 112, 2-Amino-3-((3-chloro-4-fluorophenyl)amino)benzofuran-6-carbonitrile], the IC50 (on IDO1 in HeLa cells; in experiment [1]) was < 200 nM each time.
Regarding `COCCNC(=O)c1ccc(-c2nccc3c(Nc4ccc(F)c(Cl)c4)c(N)oc23)cc1` [Compound 169, 4-(2-Amino-3-((3-chloro-4-fluorophenyl)amino)furo[2,3-c]pyridin-7-yl)-N-(2-methoxyethyl)benzamide], the IC50 (against IDO1 in HeLa cells; in experiment [1]) was < 200 nM each time.
For the compound `Nc1oc2c(-c3ccc(F)c(F)c3)nccc2c1Nc1ccc(F)c(Cl)c1` [Compound 170, N^3-(3-chloro-4-fluorophenyl)-7-(3,4-difluorophenyl)furo[2,3-c]pyridine-2,3-diamine], the IC50 (against IDO1 in HeLa cells; in experiment [1]) was < 200 nM in each case.
On to `CCOC(=O)Nc1oc2c(-c3ccncc3)nccc2c1N(C(=O)OCC)c1ccc(F)c(C(F)(F)F)c1` [Compound 193, Ethyl (2-((ethoxycarbonyl)amino)-7-(pyridin-4-yl)furo[2,3-c]pyridin-3-yl)(4-fluoro-3-(trifluoromethyl)phenyl)carbamate], for which the concentration for half-maximal inhibition (IC50) was > 1000 nM in experiment [1] and > 2000 nM in experiment [2].
The matching figures for `CCOC(=O)Nc1oc2c(C#N)nccc2c1N(C(=O)OCC)c1ccc(F)c(C(F)(F)F)c1` [Compound 194, Ethyl (7-cyano-2-((ethoxycarbonyl)amino)furo[2,3-c]pyridin-3-yl)(4-fluoro-3-(trifluoromethyl)phenyl)carbamate]: > 1000 nM and > 2000 nM.
As for `CCOC(=O)Nc1sc2ccccc2c1Nc1ccc(F)c(Cl)c1` [Compound 209, Ethyl (3-((3-chloro-4-fluorophenyl)amino)benzo[b]thiophen-2-yl)carbamate], the results for the IC50 in experiment [1] and in experiment [2] were > 1000 nM and > 2000 nM, respectively.
In the case of `N#Cc1ccc(-c2cccc3c(Nc4ccc(F)c(Cl)c4)c(N)sc23)cc1` [Compound 212, 4-(2-Amino-3-((3-chloro-4-fluorophenyl)amino)benzo[b]thiophen-7-yl)benzonitrile], the IC50 (against IDO1 in HeLa cells; in experiment [1]) was < 200 nM in each case.
`Cc1cc(-c2nccc3c(Nc4ccccc4N4CCCCC4)c(N)oc23)ccn1` [Compound 242, 7-(2-Methylpyridin-4-yl)-N^3-(2-(piperidin-1-yl)phenyl)furo[2,3-c]pyridine-2,3-diamine]: the IC50 in experiment [1] is > 1000 nM; in experiment [2], > 2000 nM.
Take `Cc1cc(-c2cccc3c(Nc4ccccc4)c(N)sc23)ccn1` [Compound 265, 7-(2-Methylpyridin-4-yl)-N^3-phenylbenzo[b]thiophene-2,3-diamine]: the values for the IC50 in experiment [1] and in experiment [2] were < 200 nM and 500 to 2000 nM, respectively.
The matching figures for `Cc1cc(-c2cccc3c(Nc4ccc(F)cc4)c(N)sc23)ccn1` [Compound 266, N^3-(4-Fluorophenyl)-7-(2-methylpyridin-4-yl)benzo[b]thiophene-2,3-diamine]: < 200 nM and 500 to 2000 nM.

Source of the values: patent US10294212B2 (CURADEV PHARMA PRIVATE LTD., priority 2013, dated 2019).
